According to patent publication US8232271B2 (priority 2008, dated 2012):

Legend:
[1] = molecular target: T1, HCV polymerase (NS5B570n-Con1) (Hepatitis C virus genotype 1b, UniProt Q9WMX2); assay: HCV NS5B RNA polymerase activity assay; type: biochemical, HCV Con1 strain
T1 construct: contains a 21 amino acid deletion at the C-terminus relative to the full-length HCV polymerase; 6-histidine (N); made in house; host or cells: E. coli BL21(DE) pLysS, plasmid pET17b
Procedure: The enzymatic activity of HCV polymerase (NS5B570n-Con1) was measured as the incorporation of radiolabeled nucleotide monophosphates into acid insoluble RNA products. Unincorporated radiolabeled substrate was removed by filtration and scintillant was added to the washed and dried filter plate containing radiolabeled RNA product. The amount of RNA product generated by NS5B570-Con1 at the end of the reaction was directly proportional to the amount of light emitted by the scintillant.
The N-terminal 6-histidine tagged HCV polymerase, derived from HCV Con1 strain, genotype 1b (NS5B570n-Con1) contains a 21 amino acid deletion at the C-terminus relative to the full-length HCV polymerase and was purified from E. coli strain BL21(DE) pLysS. The construct, containing the coding sequence of HCV NS5B Con1 (GenBank accession number AJ242654) was inserted into the plasmid construct pET17b, downstream of a T7 promoter expression cassette and transformed into E. coli. A single colony was grown overnight as a starter culture and later used inoculate 10 L of LB media supplemented with 100 μg/mL ampicillin at 37° C. Protein expression was induced by the addition of 0.25 mM isopropyl-β-D-thiogalactopyranoside (IPTG) when optical density at […] of the culture was between 0.6 and 0.8 and cells were harvested after 16 to 18 h at 30° C. NS5B570n-Con1 was purified to homogeneity using a three-step protocol including subsequent column chromatography on Ni-NTA, SP-Sepharose HP and Superdex 75 resins.
Each 50 μl enzymatic reaction contained 20 nM RNA template derived from the complementary sequence of the Internal Ribosome Entry Site (cIRES), 20 nM NS5B570n-Con1 enzyme, 0.5 μCi of tritiated UTP (Perkin Elmer catalog no. TRK-412; specific activity: 30 to 60 Ci/mmol; stock solution concentration from 7.5×10^-5 M to 20.6×10^-6 M), 1 μM each ATP, CTP, and GTP, 40 mM Tris-HCl pH 8.0, 40 mM NaCl, 4 mM DTT (dithiothreitol), 4 mM MgCl2, and 5 μl of compound serial diluted in DMSO. Reaction mixtures were assembled in 96-well filter plates (cat #MADVN0B, Millipore Co.) and incubated for 2 h at 30° C. Reactions were stopped by addition of 10% final (v/v) trichloroacetic acid and incubated for 40 min at 4° C. Reactions were filtered, washed with 8 reaction volumes of 10% (v/v) trichloroacetic acetic acid, 4 reaction volumes of 70% (v/v) ethanol, air dried, and 25 μl of scintillant (Microscint 20, Perkin-Elmer) was added to each reaction well.
The amount of light emitted from the scintillant was converted to counts per minute (CPM) on a Topcount® plate reader (Perkin-Elmer, Energy Range: Low, Efficiency Mode: Normal, Count Time: 1 min, Background Subtract: none, Cross talk reduction: Off).
Data was analyzed in Excel® (Microsoft®) and ActivityBase® (Idbs®). The reaction in the absence of enzyme was used to determine the background signal, which was subtracted from the enzymatic reactions. Positive control reactions were performed in the absence of compound, from which the background corrected activity was set as 100% polymerase activity. All data was expressed as a percentage of the positive control. The compound concentration at which the enzyme-catalyzed rate of RNA synthesis was reduced by 50% (IC50) was calculated by fitting
[formula] equation (i) to the data. where “Y” corresponds to the relative enzyme activity (in %), “% Min” is the residual relative activity at saturating compound concentration, “% Max” is the relative maximum enzymatic activity, “X” corresponds to the compound concentration, and “S” is the Hill coefficient (or slope).

[2] = tested on: HCV replicon cells (2209-23); assay: HCV replicon assay (Renilla luciferase reporter); type: cell-based, HCV genotype 1b; details: Hepatitis C virus, 72 h; three days incubation
in vitro = details: human
HCV = details: monotherapy; cited from earlier work

Compound `COc1cc(CN2CCCS2(=O)=O)c(-c2ccc[nH]c2=O)cc1C(C)(C)C` [Compound I-21, 3-[5-tert-Butyl-2-(1,1-dioxo-1λ^6-isothiazolidin-2-ylmethyl)-4-methoxy-phenyl]-1H-pyridin-2-one] has an IC50 [1] of 17 nM, a melting point of 109.4 to 126.9 °C and an IC50 [2] of 168 nM.
`COc1cc(CN(c2ccccc2)S(C)(=O)=O)c(-c2ccc[nH]c2=O)cc1C(C)(C)C` [Compound I-34] showed an IC50 [1] of 13 nM, a melting point of 226 to 227 °C and a CC50 (in vitro) of 44200 nM. The IC50 [2] was 936 nM.
In the case of `COc1cc(CNC(=O)c2ccc(O)cc2)c(-c2ccc[nH]c2=O)cc1C(C)(C)C` [Compound I-38, N-[4-tert-Butyl-5-methoxy-2-(2-oxo-1,2-dihydro-pyridin-3-yl)-benzyl]-4-hydroxy-benzamide], the IC50 [1] is reported as 16 nM, the melting point is reported as 205 to 210 °C and the CC50 (in vitro) is reported as 92900 nM. It also gave an IC50 [2] of 310 nM.
In the case of `COc1cc(CNC(=O)c2cccc(NS(C)(=O)=O)c2)c(-c2ccc[nH]c2=O)cc1C(C)(C)C` [Compound I-63], the IC50 [1] is reported as 12 nM, the melting point is reported as 259 to 260 °C and the CC50 (in vitro) is reported as 43700 nM. The IC50 [2] was 34 nM.
`COc1cc(CN2C(=O)CC[C@@H]2C(=O)O)c(-c2ccc[nH]c2=O)cc1C(C)(C)C` [Compound I-71, (R)-1-[4-tert-Butyl-5-methoxy-2-(2-oxo-1,2-dihydro-pyridin-3-yl)-benzyl]-5-oxo-pyrrolidine-2-carboxylic acid] gave an IC50 [1] of 36 nM and a melting point of 199 to 200 °C.
Work on `COc1cc(CN2C(=O)CC[C@H]2CO)c(-c2ccc[nH]c2=O)cc1C(C)(C)C` [Compound I-72, 3-[5-tert-Butyl-2-((S)-2-hydroxymethyl-5-oxo-pyrrolidin-1-ylmethyl)-4-methoxy-phenyl]-1H-pyridin-2-one] yielded an IC50 [1] of 77 nM and a melting point of 146 to 148 °C.
`COc1cc(C(=O)N2CCC(CO)C2)c(-c2ccc[nH]c2=O)cc1C(C)(C)C` (stereo not drawn) [Compound I-73] gave an IC50 [1] of 1610 nM and a melting point of 201 to 203 °C.
With `COc1cc(C(=O)N(C)Cc2ccc(F)cc2)c(-c2ccc[nH]c2=O)cc1C(C)(C)C` [Compound I-77] the IC50 [1] was 611 nM and the melting point was 218 to 220 °C.
In the case of `COc1cc(CNC(=O)[C@H]2CC[C@H](NS(C)(=O)=O)C2)c(-c2ccc[nH]c2=O)cc1C(C)(C)C` [Compound I-81, (1S,3S)-3-Methanesulfonylamino-cyclopentanecarboxylic acid 4-tert-butyl-5-methoxy-2-(2-oxo-1,2-dihydro-pyridin-3-yl)-benzylamide], the IC50 [1] is reported as 22 nM, the melting point is reported as 158 to 160 °C and the IC50 [2] is reported as 238 nM.
With `COc1cc(CNC(=O)C2CCCC(NS(C)(=O)=O)C2)c(-c2ccc[nH]c2=O)cc1C(C)(C)C` (stereo not drawn) [Compound I-82] the IC50 [1] was 30 nM and the melting point was 162 to 164 °C.
Work on `COc1cc(CN2C(=O)CC[C@@H]2CO)c(-c2ccc[nH]c2=O)cc1C(C)(C)C` [Compound I-83] yielded an IC50 [1] of 146 nM and a melting point of 150 to 152 °C.
Work on `COc1cc(CN(C)S(C)(=O)=O)c(-c2ccc[nH]c2=O)cc1C(C)(C)C` [Compound I-86] yielded an IC50 [1] of 52 nM and a melting point of 230 to 231 °C.
`COc1cc(CNS(=O)(=O)c2ccccc2Cl)c(-c2ccc[nH]c2=O)cc1C(C)(C)C` [Compound I-87] showed an IC50 [1] of 358 nM and a melting point of 231 to 232 °C.
`COc1cc(CN2C(=O)CC(C)(C)CC2=O)c(-c2ccc[nH]c2=O)cc1C(C)(C)C` [Compound I-88] showed an IC50 [1] of 52 nM and a melting point greater than 300 °C.
Work on `COc1cc(C#N)c(-c2ccc[nH]c2=O)cc1C(C)(C)C` [Compound I-91] yielded an IC50 [1] of 374 nM and a melting point of 247 to 249 °C.
In the case of `COc1cc(CN2Cc3ccc(NS(C)(=O)=O)cc3C2=O)c(-c2ccc[nH]c2=O)cc1C(C)(C)C` [Compound I-92], the IC50 [1] is reported as 8 nM and the melting point is reported as 173 to 175 °C.
In the case of `NC(=O)c1ncn([C@@H]2O[C@H](CO)[C@@H](O)[C@H]2O)n1` [ribavirin, 1-((2R,3R,4S,5R)-3,4-Dihydroxy-5-hydroxymethyl-tetrahydro-furan-2-yl)-1H-[1,2,4]triazole-3-carboxylic acid amide], the “effect on serum levels of HCV-RNA” value (HCV) is given as “does not lower serum levels of HCV-RNA” and the “patients with serum amino transferase levels reduced to normal” value (HCV) is given as 40%.
